{
  "source": "patent US6121296A",
  "about": "“Transition-state inhibitors for nucleoside hydrolase and transferase reactions” (Albert Einstein College of Medicine of Yeshiva University, priority 1998, dated 2000)",
  "molecules": {"B1": {"name": "IAG-nucleoside hydrolase (Trypanosoma brucei brucei TREU927) (protein)", "chain": "MAKTVILDHDGNKDDFVAMILLLSNPKKVNLIGCICTDADCFVENGFDVTGKIMCAMHRLIKTPLFPIGKSTATAVNAFPTEWRFSAKNLDDMPFLNIVEDVALWEKLKPENEAHNGQQLLADLVMKSKEKVTVCVTGPLSNMAWCIEKYGEAFTSKVEECVIMGGAVDVGGNVFLPTTDGSAEWNIYWDPPAAKKVLCCPNIRCVLFSLDATNTVPVRSVDVKGFGAQNQYLLSQMVGTMWAMSTHEEILRDGDAYYAWDALTAAYILEPTIATLEPVALDVDVSKGKSEGRTPRASGEGKPCVHVARNPSKQMFHDLVFASTRVC"}},
  "key": {"nucleoside hydrolase": {"target": "T1, nucleoside hydrolase (Crithidia fasciculata, UniProt Q27546)", "T1 construct": "nucleoside hydrolase was purified from C. fasciculata as described above; endogenous in cells; host or cells: Crithidia fasciculata cells grown in a 300-liter fermenter", "T1 sequence (Q27546 1-315)": "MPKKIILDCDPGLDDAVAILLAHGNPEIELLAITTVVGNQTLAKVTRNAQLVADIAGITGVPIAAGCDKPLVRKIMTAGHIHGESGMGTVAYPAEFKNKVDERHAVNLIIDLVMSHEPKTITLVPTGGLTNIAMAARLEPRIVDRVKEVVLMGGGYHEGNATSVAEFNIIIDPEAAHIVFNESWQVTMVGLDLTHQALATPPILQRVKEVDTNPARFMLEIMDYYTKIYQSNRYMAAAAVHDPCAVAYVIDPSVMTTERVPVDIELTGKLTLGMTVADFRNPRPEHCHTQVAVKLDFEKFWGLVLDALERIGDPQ", "test": "Inhibition of nucleoside hydrolase, inosine hydrolysis monitored at 280 nm, bis-tris pH 7.3", "type": "biochemical", "protocol": "All assays were performed at 30° C. in 50 mM bis-tris buffer at pH 7.3. The substrate for all assays was inosine. Inhibition studies were performed by examining the initial velocity of the hydrolysis of inosine as a function of inosine concentration and (2S)-phenyl-(3S,4R)-dihydroxy-(5R)-hydroxymethylpyrrolidine concentration. A total of 75 velocity measurements were made.\nThe general protocol for measurement was as follows: various concentrations of inosine and inhibitor in the above buffer were prepared, and 1.0 mL aliquots placed in a quartz cuvette and equilibrated at 30° C. […] The decrease in absorption at 280 nm was monitored over a 10 minute period."}, "IU-nucleoside hydrolase [1]": {"target": "T2, IU-nucleoside hydrolase (Crithidia fasciculata, UniProt Q27546, P2A)", "T2 construct": "contained the coding region for the enzyme; made in house; host or cells: E. coli BL21 (DE3)pLysS, pET3d plasmid", "T2 sequence (Q27546 whole entry P2A)": "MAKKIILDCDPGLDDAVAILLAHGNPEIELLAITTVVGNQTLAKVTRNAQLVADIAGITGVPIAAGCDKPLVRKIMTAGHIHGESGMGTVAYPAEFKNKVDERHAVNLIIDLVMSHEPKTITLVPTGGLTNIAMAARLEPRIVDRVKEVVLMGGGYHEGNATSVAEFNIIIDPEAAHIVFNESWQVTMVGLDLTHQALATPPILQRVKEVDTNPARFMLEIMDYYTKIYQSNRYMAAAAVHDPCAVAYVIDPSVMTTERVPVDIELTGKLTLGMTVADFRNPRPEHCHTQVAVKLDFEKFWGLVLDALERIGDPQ", "test": "biochemical", "type": "biochemical, C. fasciculata", "settings": "for inhibition pattern: minimum of four substrate and three inhibitor concentrations", "text": "Enzymes. Inosine-uridine nucleoside hydrolase (IU-nucleoside hydrolase) was purified from extracts of E. coli strain BL21 (DE3)pLysS which contained the coding region for the enzyme isolated from C. fasciculata in a pET3d expression plasmid. The DNA coding for the enzyme was placed in the NcoI-BamHI site. This construct gives a Pro2Ala substitution which has no significant effect on the kinetic properties of the purified enzyme. The overexpressed enzyme was purified to apparent homogeneity as previously described (Gopaul, et al. (1996) Biochemistry 35, 5963-5970).\n(§1) Enzyme Assays. Initial rate measurements were accomplished at 30° C. in reaction mixtures containing 50 mM potassium phosphate, pH 7.5, or 50 mM Hepes, pH 8.0, and nitrophenylribose or inosine as substrates (Mazella, et al. (1996) J. Am. Chem. Soc. 118, 2111-2112). At pH 7.5 the product p-nitrophenylate anion is present at a concentration which gives a millimolar extinction coefficient of 9.3 cm^-1 at 400 nm. Reaction mixtures with nitrophenylribose as substrate were initiated by the addition of enzyme, and product formation was monitored by continuous recording at 400 nm. With inosine as substrate, the conversion to hypoxanthine was monitored continuously at 280 nm (Parkin, et al. (1991) J. Biol. Chem. 266, 20658-20665). […] The remainder of the inhibitors were analyzed at one fixed substrate concentration and variable inhibitor concentrations. Inhibition constants for IAG-nucleoside hydrolase were established from full kinetic analysis with V and X as inhibitors. […] The remainder of the inhibition constants were characterized by titration of assay mixtures containing a fixed concentration of substrate with variable inhibitor concentrations. […] For Ki determination at a fixed substrate concentration, this approach assumes that substrate and inhibitor compete for the catalytic site.\nInhibitors. Iminoribitol inhibitor were synthesized and purified according to the methods of Furneaux, et al. (Tetrahedron (1997) in press), characterized by NMR, dissolved in H2 O and stored at -20° C. The compounds are enzymatically and chemically stable in H2 O and under conditions of the assay. IU-Nucleoside hydrolase is susceptible to slow-onset tight-binding inhibition under certain conditions (Horenstein & Schramm, (1993b) Biochemistry 32, 9917-9925, Boutellier, et al. (1994) Biochemistry, 33, 3994-4000). However, in the initial reaction rate conditions described here, only the rapidly reversible competition between substrate and inhibitor is being observed. Thus, the reported kinetic constants are dissociation constants which exclude slow-onset binding."}, "IAG-nucleoside hydrolase": {"target": "IAG-nucleoside hydrolase (Trypanosoma brucei, UniProt Q57ZL6)", "test": "Inhibition of IAG-nucleoside hydrolase, initial rates", "settings": "for Km /Ki IAG-nucleoside hydrolase: comparison with inosine; for inhibition pattern: full kinetic analysis", "protocol": "The enzyme was purified to apparent homogeneity as determined by denaturing polyacrylamide gel electrophoresis (Parkin, (1996) J. Biol. Chem. 271, 21713-21719). Some of the studies used the T. brucei brucei enzyme which was overexpressed in E. coli.\nas §1, with “concentrations.” for “concentrations. Inhibition constants for IAG-nucleoside hydrolase were established from full kinetic analysis with V and X as inhibitors.”\nInhibitors. Iminoribitol inhibitor were synthesized and purified according to the methods of Furneaux, et al. (Tetrahedron (1997) in press), characterized by NMR, dissolved in H2 O and stored at -20° C."}, "IU-nucleoside hydrolase [2]": {"target": "T2, IU-nucleoside hydrolase", "settings": "cited from earlier work"}, "[3]": {"substrate": "OC[C@H]1O[C@@H](n2cnc3c(O)ncnc32)[C@H](O)[C@@H]1O", "test": "purified protein, by the assay type", "settings": "other: inosine as substrate; 30.0 °C", "quoted_text": "The IAG-nucleoside hydrolase was purified from the blood-stream form of T. brucei brucei (ILTaT 1.1) grown in sublethally irradiated (650 rads) Sprague-Dawley rats. The enzyme was purified to apparent homogeneity as determined by denaturing polyacrylamide gel electrophoresis (Parkin, (1996) J. Biol. Chem. 271, 21713-21719). Some of the studies used the T. brucei brucei enzyme which was overexpressed in E. coli.\nAt pH 7.5 the product p-nitrophenylate anion is present at a concentration which gives a millimolar extinction coefficient of 9.3 cm^-1 at 400 nm. Reaction mixtures with nitrophenylribose as substrate were initiated by the addition of enzyme, and product formation was monitored by continuous recording at 400 nm. […] The remainder of the inhibitors were analyzed at one fixed substrate concentration and variable inhibitor concentrations. […] The remainder of the inhibition constants were characterized by titration of assay mixtures containing a fixed concentration of substrate with variable inhibitor concentrations. […] For Ki determination at a fixed substrate concentration, this approach assumes that substrate and inhibitor compete for the catalytic site. In these cases, data were fit to the equation: 1/v=1/kcat +(Km /kcat A)(1+I/Ki)\nThe compounds are enzymatically and chemically stable in H2 O and under conditions of the assay. […]"}, "[4]": {"settings": "KI IU-nucleoside hydrolase, Table V"}},
  "note": "Where two headings read alike, the source gives them in different places.",
  "data": [
    {"molecule": "OC[C@H]1N[C@@H](c2ccccc2)[C@H](O)[C@@H]1O", "note": "[(2S)-phenyl-(3S,4R)-dihydroxy-(5R)-hydroxymethyl-pyrrolidine]", "values": [
      {"measurement": "binding better than the substrate inosine", "setting": "nucleoside hydrolase", "value": "approximately 2,000 fold"},
      {"measurement": "inhibition pattern", "setting": "nucleoside hydrolase", "value": "competitive inhibition pattern"},
      {"measurement": "Ki", "setting": "nucleoside hydrolase; read-out: inhibition constant", "value": 0.15, "unit": "µM"}
    ]},
    {"molecule": "OC[C@H]1NC[C@H](O)[C@@H]1O", "note": "[I]", "values": [
      {"measurement": "inhibition pattern", "setting": "IU-nucleoside hydrolase [1]", "value": "slope-linear competitive inhibitors"},
      {"measurement": "Ki", "setting": "IAG-nucleoside hydrolase", "value": "44 ± 4", "unit": "µM"},
      {"measurement": "Km /KI IAG-nucleoside hydrolase", "setting": "IAG-nucleoside hydrolase", "value": 0.41},
      {"measurement": "Ki", "setting": "IU-nucleoside hydrolase [2]; Table V, from Horenstein and Schramm (1993b), read-out: KI IU-nucleoside hydrolase", "value": "4.5 ± 0.4", "unit": "µM"}
    ]},
    {"molecule": "OC[C@H]1N[C@@H](c2ccccc2)[C@H](O)[C@@H]1O", "note": "[V, phenyliminoribitol]", "values": [
      {"measurement": "inhibition pattern", "setting": "IU-nucleoside hydrolase [1]", "value": "slope-linear competitive inhibitors"},
      {"measurement": "Ki", "setting": "IAG-nucleoside hydrolase", "value": 180, "unit": "µM"},
      {"measurement": "Km /KI IAG-nucleoside hydrolase", "setting": "IAG-nucleoside hydrolase", "value": 0.1},
      {"measurement": "Km /Ki IAG-nucleoside hydrolase", "setting": "IAG-nucleoside hydrolase; Table VI", "value": 0.1},
      {"measurement": "inhibition pattern", "setting": "IAG-nucleoside hydrolase", "value": "competitive inhibition"},
      {"measurement": "Ki", "setting": "IU-nucleoside hydrolase [2]; read-out: KI IU-nucleoside hydrolase, from Horenstein and Schramm (1993b)", "value": 0.3, "unit": "µM"},
      {"measurement": "Ki", "setting": "IU-nucleoside hydrolase [2]; read-out: Ki IU-nucleoside hydrolase, Table VI, taken from Horenstein and Schramm (1993b)", "value": 0.3, "unit": "µM"}
    ]},
    {"molecule": "OC[C@H]1O[C@@H](c2ccccc2)[C@H](O)[C@@H]1O", "note": "[XIII, 1-deoxy-1-C-phenyl-β-D-ribofuranose, reference compound]", "values": [
      {"measurement": "Ki", "setting": "IU-nucleoside hydrolase [1]; Ki IU-nucleoside hydrolase, Table VI, 58 μM nitrophenylriboside, 50 mM Hepes, pH 8.0", "value": 600, "unit": "µM"},
      {"measurement": "Ki", "setting": "IU-nucleoside hydrolase [1]; inhibition constant IU-enzyme, text b399, unit inferred", "value": 1600, "unit": "µM"},
      {"measurement": "Ki", "setting": "IAG-nucleoside hydrolase", "value": "> 30000", "unit": "µM"},
      {"measurement": "decline of affinity relative to inosine", "setting": "IAG-nucleoside hydrolase", "value": "> 1670", "unit": "fold"},
      {"measurement": "binding / inhibition at 10 mM", "setting": "IAG-nucleoside hydrolase; 10 mM XIII", "value": "no binding can be detected"},
      {"measurement": "Km /Ki IAG-nucleoside hydrolase", "setting": "IAG-nucleoside hydrolase; Table VI", "value": "< 0.0006"},
      {"measurement": "Ki", "setting": "IAG-nucleoside hydrolase; read-out: Ki IAG-nucleoside hydrolase, Table VI, XIII: 560 μM nitrophenylriboside, 50 mM Hepes, pH 8.0, lower limit", "value": "> 30000", "unit": "µM"}
    ]},
    {"molecule": "OC[C@H]1N[C@@H](c2ccc(Cl)cc2)[C@H](O)[C@@H]1O", "note": "[XI]", "values": [
      {"measurement": "Ki", "setting": "IU-nucleoside hydrolase [1]; [4]", "value": "0.03 ± 0.0014", "unit": "µM"},
      {"measurement": "inhibition pattern", "setting": "IU-nucleoside hydrolase [1]", "value": "slope-linear competitive inhibitors"},
      {"measurement": "Ki", "setting": "IAG-nucleoside hydrolase", "value": "190 ± 8", "unit": "µM"},
      {"measurement": "Km /KI IAG-nucleoside hydrolase", "setting": "IAG-nucleoside hydrolase", "value": 0.095}
    ]},
    {"molecule": "Nc1ccc([C@@H]2N[C@H](CO)[C@@H](O)[C@H]2O)cc1", "note": "[X]", "values": [
      {"measurement": "Ki", "setting": "IU-nucleoside hydrolase [1]; [4]", "value": "0.03 ± 0.002", "unit": "µM"},
      {"measurement": "Ki", "setting": "IAG-nucleoside hydrolase", "value": "12 ± 1", "unit": "µM"},
      {"measurement": "Km /KI IAG-nucleoside hydrolase", "setting": "IAG-nucleoside hydrolase", "value": 1.5},
      {"measurement": "binding compared to inosine", "setting": "IAG-nucleoside hydrolase", "value": "binds as well as the preferred substrate, inosine"},
      {"measurement": "inhibition pattern", "setting": "IAG-nucleoside hydrolase", "value": "competitive inhibition"}
    ]},
    {"molecule": "OC[C@H]1N[C@@H](c2ccc(Br)cc2)[C@H](O)[C@@H]1O", "note": "[XII]", "values": [
      {"measurement": "Ki", "setting": "IU-nucleoside hydrolase [1]; [4]", "value": "0.028 ± 0.004", "unit": "µM"},
      {"measurement": "inhibition pattern", "setting": "IU-nucleoside hydrolase [1]", "value": "slope-linear competitive inhibitors"},
      {"measurement": "Ki", "setting": "IAG-nucleoside hydrolase", "value": "113 ± 5", "unit": "µM"},
      {"measurement": "Km /KI IAG-nucleoside hydrolase", "setting": "IAG-nucleoside hydrolase", "value": 0.16}
    ]},
    {"molecule": "B1", "values": [
      {"measurement": "Km", "setting": "[3]", "value": "18 ± 1", "unit": "µM"}
    ]}
  ]
}
